Laboratory results from patent US5726195A, “Aminoacyl adenylate mimics as novel antimicrobial and antiparasitic agents” (Cubist Pharmaceuticals, Inc., priority 1996, dated 1998).
Converted amounts (≈) assume the structure as drawn.

Legend:
[1] = target: E. Coli. IleRS (isoleucyl-tRNA synthetase) (Escherichia coli, UniProt P00956); test: Inhibition of isoleucyl-tRNA synthetase (aminoacylation of tRNA with [3H]isoleucine); format: biochemical; conditions: E. coli enzyme; irreversible inhibitors: values are 50% of the active enzyme concentration; read-out: IC50 E.Coli. IleRS
Sequence of E. Coli. IleRS (isoleucyl-tRNA synthetase) (P00956 whole entry): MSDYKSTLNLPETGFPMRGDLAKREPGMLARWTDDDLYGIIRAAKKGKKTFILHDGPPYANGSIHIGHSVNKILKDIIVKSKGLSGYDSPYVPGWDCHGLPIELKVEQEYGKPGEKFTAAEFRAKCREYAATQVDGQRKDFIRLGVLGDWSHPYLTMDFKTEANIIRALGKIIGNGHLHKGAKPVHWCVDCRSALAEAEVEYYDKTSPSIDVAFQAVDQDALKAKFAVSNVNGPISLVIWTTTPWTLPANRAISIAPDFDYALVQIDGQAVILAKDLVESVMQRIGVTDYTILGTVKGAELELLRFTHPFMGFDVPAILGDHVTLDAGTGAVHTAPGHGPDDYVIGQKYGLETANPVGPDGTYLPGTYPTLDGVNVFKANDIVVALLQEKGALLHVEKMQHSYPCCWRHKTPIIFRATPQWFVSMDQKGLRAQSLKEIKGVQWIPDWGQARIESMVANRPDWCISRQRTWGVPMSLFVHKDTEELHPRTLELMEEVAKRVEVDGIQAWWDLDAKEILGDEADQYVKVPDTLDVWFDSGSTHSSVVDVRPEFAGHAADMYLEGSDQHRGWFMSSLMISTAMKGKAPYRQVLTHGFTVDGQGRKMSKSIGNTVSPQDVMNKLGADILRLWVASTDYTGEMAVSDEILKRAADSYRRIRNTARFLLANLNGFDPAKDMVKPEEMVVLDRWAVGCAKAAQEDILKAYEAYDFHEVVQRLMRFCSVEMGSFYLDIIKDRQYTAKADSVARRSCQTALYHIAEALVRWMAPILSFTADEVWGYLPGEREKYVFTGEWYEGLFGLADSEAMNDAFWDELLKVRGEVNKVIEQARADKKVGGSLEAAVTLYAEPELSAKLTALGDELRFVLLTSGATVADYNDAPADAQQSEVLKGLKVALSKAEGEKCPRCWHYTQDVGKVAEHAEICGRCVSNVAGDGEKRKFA
Protocol: The extent of aminoacylation of tRNA with isoleucine catalyzed by isoleucyl-tRNA synthetase enzyme was measured by monitoring the incorporation of [3H] isoleucine into trichloroacetic acid-precipitable tRNA in the presence of a compound of Formula I, as compared with activity in the absence of inhibitor. The isoleucyl-tRNA synthetase enzymes are well known in the prior art and can be obtained and purified by known methods (for example see: D. Kern et at., Biochimie, 61, 1257-1272 (1979) and J. Gilbart et al., Antimicrobial Agents and Chemotherapy, 37 (1), 32-38 (1993)).
Isoleucyl-tRNA synthetase enzyme (0.08-2.0 nM, preferably, 0.4 nM) was first pre-incubated at 25° C. with 0.05 mg/ml bovine serum albumin, 10 mM DTT, 2.5% dimethyl sulfoxide, with or without a compound of Formula I, for 20 minutes. At this point a substrate solution (a solution containing the following: ATP, [^3 H]isoleucine, tRNA, HEPES, magnesium chloride, and potassium chloride) was added to give a final concentration of 0.0286 mg/ml bovine serum albumin, 5.7 mM DTT, 4 mM ATP, 5-20 μM [^3 H] isoleucine (1-15 Ci/mmol), 90 μM crude tRNA or 2 μM isoleucine specific tRNA, 1.4% dimethyl sulfoxide, 30 mM HEPES (pH 7.5), 10 mM magnesium chloride, and 50 mM potassium chloride and incubated at 25° C. Aliquots were removed at selected times (e.g. 5, 10, 20 minutes) and applied to 3MM filter paper discs (Whatman) and then dropped into 5% (wt/vol) trichloroacetic acid for >5 minutes. Filters were washed for three 10-minute periods in 5% trichloroacetic acid, rinsed in 95% ethanol and diethyl ether, and radioactivity was measured with Betafluor™ (National Diagnostics) by liquid scintillation counting.
Inhibitor activity is reported in Table II as an IC50 value (inhibitor concentration causing 50% inhibition of enzyme activity) per a known amount of active enzyme. In the case of irreversible inhibitors (1:1 stoichiometry) these values are 50% of the active enzyme concentration. The IC50 (in nM, E. coli) values of representative compounds of the present invention are listed in the second column of Table II.

C. albicans ATCC 10231 = test: Whole cell antimicrobial screen, MIC; format: cell-based; conditions: Candida albicans, ATCC10231
Protocol: (§1) Compounds were tested for antimicrobial activity against a panel of organisms according to standard procedures described by the National Committee for Clinical Laboratory Standards (NCCLS document M7-A3, Vol. 13, No. 25, 1993/NCCLS document M27-P, Vol. 12, No. 25, 1992). Compounds were dissolved in 100% dimethyl sulfoxide and were diluted to the final reaction concentration (0.1 μg/mL-500 μg/mL) in microbial growth media. In al cases the final concentration of dimethyl sulfoxide incubated with cells is less than or equal to 1%. For minimum inhibitory concentration (MIC) calculations, 2-fold dilutions of compounds were added to wells of a microtiter plate containing 5×10^4 bacteria or fungal cells in a final volume of 100 lambda of an appropriate media (Mueller-Hinton Broth; Haemophilus Test Media; Mueller-Hinton Broth+5% Sheep Blood; or […]). Plates were incubated overnight at an appropriate temperature (30° C.-37° C.) and optical densities (measure of cell growth) were measured using a commercial plate reader. The MIC value is defined as the lowest compound concentration inhibiting growth of the test organism.

E. faecalis ATCC 33011 = test: Whole cell antimicrobial screen, MIC; format: cell-based; conditions: Enterococcus faecalis, ATCC33011
Protocol: as §1

E. faecium ATCC 6569 = test: Whole cell antimicrobial screen, MIC; format: cell-based; conditions: Enterococcus faecium, ATCC6569
Protocol: as §1

S. aureus ATCC 14154 = test: Whole cell antimicrobial screen, MIC; format: cell-based; conditions: Staphylococcus aureus, ATCC14154
Protocol: as §1

S. aureus ATCC 6538P = test: Whole cell antimicrobial screen, MIC; format: cell-based; conditions: Staphylococcus aureus, ATCC6538P
Protocol: as §1

[2] = system: S. epidermidis ATCC 33501; test: Whole cell antimicrobial screen, MIC; format: cell-based; conditions: Staphylococcus epidermidis, ATCC33501
Protocol: as §1

[3] = system: S. saprophyticus ATCC 35552; test: Whole cell antimicrobial screen, MIC; format: cell-based; conditions: Staphylococcus saprophyticus, ATCC35552
Protocol: as §1

B. subtilis ATCC 6633 = test: Whole cell antimicrobial screen, MIC; format: cell-based; conditions: Bacillus subtilis, ATCC6633
Protocol: as §1

K. pneumonia ATCC 4352 = test: Whole cell antimicrobial screen, MIC; format: cell-based; conditions: Klebsiella pneumoniae, ATCC4352
Protocol: as §1

Row | SMILES | IC50 [1] | MIC (C. albicans ATCC 10231) | MIC (E. faecalis ATCC 33011) | MIC (E. faecium ATCC 6569) | MIC (S. aureus ATCC 14154) | MIC (S. aureus ATCC 6538P) | MIC [2] | MIC [3] | MIC (B. subtilis ATCC 6633) | MIC (K. pneumonia ATCC 4352)
1 | CC[C@H](C)[C@H](N)C(=O)NS(=O)(=O)OC[C@H]1O[C@@H](CCn2nnc(-c3ccc(Oc4ccc(N)cc4)cc3)n2)[C@H](O)[C@@H]1O [XIII] | 0.4 nM | > 500 µg/mL | > 500 µg/mL | 25 µg/mL (≈ 41.3 µM) | 100 µg/mL (≈ 165 µM) | 50 µg/mL (≈ 82.6 µM) | 10 µg/mL (≈ 16.5 µM) | 25 µg/mL (≈ 41.3 µM) |  | 
2 | CC[C@H](C)[C@H](N)C(=O)NS(=O)(=O)OC[C@H]1O[C@@H](CCn2nnc(-c3ccc(Oc4cccc(C(F)(F)F)c4)cc3)n2)[C@H](O)[C@@H]1O [XIV] | 1.7 nM | > 500 µg/mL | 100 µg/mL (≈ 152 µM) | 10 µg/mL (≈ 15.2 µM) | 25 µg/mL (≈ 38 µM) | 10 µg/mL (≈ 15.2 µM) | 5 µg/mL (≈ 7.59 µM) | 10 µg/mL (≈ 15.2 µM) |  | 
3 | CC[C@H](C)[C@H](N)C(=O)NS(=O)(=O)OC[C@H]1O[C@@H](CCn2nnc(-c3ccc(-c4ccc(F)c(F)c4)cc3)n2)[C@H](O)[C@@H]1O [XXIII] | 2.9 nM | 10 µg/mL (≈ 16.4 µM) |  | 100 µg/mL (≈ 164 µM) | 100 µg/mL (≈ 164 µM) | 50 µg/mL (≈ 81.9 µM) | 10 µg/mL (≈ 16.4 µM) | 25 µg/mL (≈ 40.9 µM) | 50 µg/mL (≈ 81.9 µM) | 100 µg/mL (≈ 164 µM)
4 | CC[C@H](C)[C@H](N)C(=O)NS(=O)(=O)OC[C@H]1O[C@@H](CCn2nnc(Cc3ccc(Oc4ccccc4)cc3)n2)[C@H](O)[C@@H]1O [XXX] | 2.7 nM | > 200 µg/mL | 500 µg/mL (≈ 827 µM) | 100 µg/mL (≈ 165 µM) | 500 µg/mL (≈ 827 µM) | 100 µg/mL (≈ 165 µM) | 25 µg/mL (≈ 41.3 µM) | 100 µg/mL (≈ 165 µM) |  | 
5 | CC[C@H](C)[C@H](N)C(=O)NS(=O)(=O)OC[C@H]1O[C@@H](CCn2nnc(-c3ccc(Oc4ccc(Oc5ccccc5)cc4)cc3)n2)[C@H](O)[C@@H]1O [XV] | 1.8 nM | > 500 µg/mL | > 500 µg/mL | 25 µg/mL (≈ 36.6 µM) | 10 µg/mL (≈ 14.6 µM) | 10 µg/mL (≈ 14.6 µM) | 5 µg/mL (≈ 7.32 µM) | 10 µg/mL (≈ 14.6 µM) |  | 
6 | CC[C@H](C)[C@H](N)C(=O)NS(=O)(=O)OC[C@H]1O[C@@H](CCn2nnc(-c3ccc(-c4ccccn4)nc3)n2)[C@H](O)[C@@H]1O [XXV] | 0.5 nM |  | > 500 µg/mL | > 500 µg/mL | 100 µg/mL (≈ 173 µM) | 500 µg/mL (≈ 867 µM) | 25 µg/mL (≈ 43.4 µM) | 50 µg/mL (≈ 86.7 µM) | > 500 µg/mL | > 500 µg/mL
7 | CC[C@H](C)[C@H](N)C(=O)NS(=O)(=O)OC[C@H]1O[C@@H](CCn2nnc(-c3ccc(C(=O)OC)cc3)n2)[C@H](O)[C@@H]1O [VII] | 0.53 nM | > 500 µg/mL | > 500 µg/mL | 100 µg/mL (≈ 180 µM) | 500 µg/mL (≈ 898 µM) | 100 µg/mL (≈ 180 µM) | 10 µg/mL (≈ 18 µM) | 50 µg/mL (≈ 89.8 µM) |  | 
8 | CC[C@H](C)[C@H](N)C(=O)NS(=O)(=O)OC[C@H]1O[C@@H](CCn2nnc(-c3ccc(Oc4ccccn4)cc3)n2)[C@H](O)[C@@H]1O [XVI] | 0.7 nM | 100 µg/mL (≈ 169 µM) | 500 µg/mL (≈ 845 µM) | 50 µg/mL (≈ 84.5 µM) | 100 µg/mL (≈ 169 µM) | 100 µg/mL (≈ 169 µM) | 25 µg/mL (≈ 42.3 µM) | 50 µg/mL (≈ 84.5 µM) |  | 
9 | CC[C@H](C)[C@H](N)C(=O)NS(=O)(=O)OC[C@H]1O[C@@H](CCn2nnc(-c3ccc(Oc4nccs4)cc3)n2)[C@H](O)[C@@H]1O [XVII] | 1 nM | > 500 µg/mL | > 500 µg/mL | 50 µg/mL (≈ 83.7 µM) | 500 µg/mL (≈ 837 µM) | 100 µg/mL (≈ 167 µM) | 25 µg/mL (≈ 41.8 µM) | 50 µg/mL (≈ 83.7 µM) |  | 
10 | CC[C@H](C)[C@H](N)C(=O)NS(=O)(=O)OC[C@H]1O[C@@H](CCn2nnc(CCCOc3ccccc3)n2)[C@H](O)[C@@H]1O [XXIX] | 0.3 nM | > 500 µg/mL | > 500 µg/mL | > 500 µg/mL | > 500 µg/mL | 500 µg/mL (≈ 898 µM) | 25 µg/mL (≈ 44.9 µM) | 500 µg/mL (≈ 898 µM) |  | 
11 | CC[C@H](C)[C@H](N)C(=O)NS(=O)(=O)OC[C@H]1O[C@@H](CCn2nnc(-c3ccc([N+](=O)[O-])o3)n2)[C@H](O)[C@@H]1O [XXVIII] | 8.8 nM | 500 µg/mL (≈ 937 µM) | > 128 µg/mL | > 128 µg/mL | 128 µg/mL (≈ 240 µM) | 128 µg/mL (≈ 240 µM) | 32 µg/mL (≈ 60 µM) | > 128 µg/mL |  | 
12 | CC[C@H](C)[C@H](N)C(=O)NS(=O)(=O)OC[C@H]1O[C@@H](CCn2nnc(-c3ccc(Oc4ccc(OC)cc4)cc3)n2)[C@H](O)[C@@H]1O [XII] | 3 nM | 500 µg/mL (≈ 806 µM) | 500 µg/mL (≈ 806 µM) | 10 µg/mL (≈ 16.1 µM) | 50 µg/mL (≈ 80.6 µM) | 25 µg/mL (≈ 40.3 µM) | < 5 µg/mL | 25 µg/mL (≈ 40.3 µM) |  | 
13 | CC[C@H](C)[C@H](N)C(=O)NS(=O)(=O)OC[C@H]1O[C@@H](CCn2nnc(-c3ccc([N+](=O)[O-])cc3)n2)[C@H](O)[C@@H]1O [VIII] | 0.5 nM | > 500 µg/mL | > 500 µg/mL | 500 µg/mL (≈ 920 µM) | 500 µg/mL (≈ 920 µM) | 500 µg/mL (≈ 920 µM) | 10 µg/mL (≈ 18.4 µM) | 100 µg/mL (≈ 184 µM) |  | 
14 | CC[C@H](C)[C@H](N)C(=O)NS(=O)(=O)OC[C@H]1O[C@@H](CCn2nnc(-c3ccc(C#Cc4cccc([N+](=O)[O-])c4)cc3)n2)[C@H](O)[C@@H]1O [III] | 3 nM | > 500 µg/mL | > 500 µg/mL | > 500 µg/mL | 50 µg/mL (≈ 77.7 µM) | 50 µg/mL (≈ 77.7 µM) | 1 µg/mL (≈ 1.55 µM) | 5 µg/mL (≈ 7.77 µM) |  | 
15 | CC[C@H](C)[C@H](N)C(=O)NS(=O)(=O)OC[C@H]1O[C@@H](CCn2nnc(-c3ccc(C#Cc4ccc([N+](=O)[O-])s4)cc3)n2)[C@H](O)[C@@H]1O [I, [S-(R*,R*)]-3,6-anhydro-1,2-dideoxy-1-[5-[4-[(5-nitro-2-thienyl)ethynyl]phenyl]-2H-tetrazol-2-yl]-D-allo-heptitol 7-(2-amino-3-methyl-1-oxopentyl)sulfamate] | 1.3 nM | > 500 µg/mL | > 500 µg/mL | > 500 µg/mL | 5 µg/mL (≈ 7.7 µM) | 1 µg/mL (≈ 1.54 µM) | 1 µg/mL (≈ 1.54 µM) | 2 µg/mL (≈ 3.08 µM) |  | 
16 | CC[C@H](C)[C@H](N)C(=O)NS(=O)(=O)OC[C@H]1O[C@@H](Cn2nnc(Cc3ccc(Oc4ccccc4)cc3)n2)[C@H](O)[C@@H]1O [XXVII, [S-(R*,R*)]-2,5-anhydro-1-deoxy-1-[5-(4-phenoxyphenylmethyl)-2H-tetrazol-2-yl]-D-allitol 6-(2-amino-3-methyl-1-oxopentyl)sulfamate] | 135 nM | > 500 µg/mL | > 500 µg/mL | > 500 µg/mL | > 500 µg/mL | > 500 µg/mL | > 500 µg/mL | > 500 µg/mL |  | 
17 | CC[C@H](C)[C@H](N)C(=O)NS(=O)(=O)OC[C@H]1O[C@@H](CCn2nnc(-c3ccc(C=C(Br)Br)cc3)n2)[C@H](O)[C@@H]1O [V] | 11 nM | 500 µg/mL (≈ 733 µM) | 500 µg/mL (≈ 733 µM) | 100 µg/mL (≈ 147 µM) | 100 µg/mL (≈ 147 µM) | 50 µg/mL (≈ 73.3 µM) | 25 µg/mL (≈ 36.6 µM) | 25 µg/mL (≈ 36.6 µM) |  | 
